{"source": "paper PMC6366411", "about": "“Novel 2-indolinones containing a sulfonamide moiety as selective inhibitors of candida β-carbonic anhydrase enzyme” (Journal of Enzyme Inhibition and Medicinal Chemistry, 2019)", "data": [{"biological_target": "T1, CgNce103 (Nakaseomyces glabratus, UniProt Q6FTL6)", "T1 construct": "gene NCE103; enzyme preparation, host and tags not described", "T1 sequence (Q6FTL6 1-219)": "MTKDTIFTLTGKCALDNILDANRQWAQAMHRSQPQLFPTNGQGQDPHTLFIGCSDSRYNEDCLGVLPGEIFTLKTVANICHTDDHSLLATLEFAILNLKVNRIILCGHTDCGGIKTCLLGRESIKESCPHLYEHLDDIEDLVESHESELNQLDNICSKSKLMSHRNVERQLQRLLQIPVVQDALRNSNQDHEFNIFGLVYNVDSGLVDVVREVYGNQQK", "assay": "stopped-flow CO2 hydration assay", "assay_type": "biochemical", "units": {"Ki": "nM"}, "values": [{"molecule": "NS(=O)(=O)c1ccc(NC(=S)N/N=C2\\C(=O)Nc3c(Cl)cc(Cl)cc32)cc1", "note": "[4l, 1H-indole-2,3-dione 3-[N-(4-sulfamoylphenyl)thiosemicarbazone], R = 5,7-diCl]", "Ki": 6.4}, {"molecule": "NS(=O)(=O)c1ccc(NC(=S)N/N=C2\\C(=O)Nc3ccc(OC(F)(F)F)cc32)cc1", "note": "[4c, 1H-indole-2,3-dione 3-[N-(4-sulfamoylphenyl)thiosemicarbazone], R = 5-OCF3]", "Ki": 53.7}, {"molecule": "NS(=O)(=O)c1ccc(NC(=S)N/N=C2\\C(=O)Nc3c(F)cccc32)cc1", "note": "[4j, 1H-indole-2,3-dione 3-[N-(4-sulfamoylphenyl)thiosemicarbazone], R = 7-F]", "Ki": 15}, {"molecule": "NS(=O)(=O)c1ccc(NC(=S)N/N=C2\\C(=O)Nc3c(Cl)cccc32)cc1", "note": "[4k, 1H-indole-2,3-dione 3-[N-(4-sulfamoylphenyl)thiosemicarbazone], R = 7-Cl]", "Ki": 12.8}, {"molecule": "NS(=O)(=O)c1ccc(NC(=S)N/N=C2\\C(=O)Nc3ccc(F)cc32)cc1", "note": "[4d, 1H-indole-2,3-dione 3-[N-(4-sulfamoylphenyl)thiosemicarbazone], R = 5-F]", "Ki": 34.7}, {"molecule": "NS(=O)(=O)c1ccc(NC(=S)N/N=C2\\C(=O)Nc3ccc(Br)cc32)cc1", "note": "[4f, 1H-indole-2,3-dione 3-[N-(4-sulfamoylphenyl)thiosemicarbazone], R = 5-Br]", "Ki": 51.6}, {"molecule": "NS(=O)(=O)c1ccc(NC(=S)N/N=C2\\C(=O)Nc3ccccc32)cc1", "note": "[4a, 1H-indole-2,3-dione 3-[N-(4-sulfamoylphenyl)thiosemicarbazone], R = H]", "Ki": 63.9}, {"molecule": "NS(=O)(=O)c1ccc(NC(=S)N/N=C2\\C(=O)Nc3ccc(I)cc32)cc1", "note": "[4g, 1H-indole-2,3-dione 3-[N-(4-sulfamoylphenyl)thiosemicarbazone], R = 5-I]", "Ki": 19.8}, {"molecule": "NS(=O)(=O)c1ccc(NC(=S)N/N=C2\\C(=O)Nc3ccc([N+](=O)[O-])cc32)cc1", "note": "[4i, 1H-indole-2,3-dione 3-[N-(4-sulfamoylphenyl)thiosemicarbazone], R = 5-NO2]", "Ki": 42.1}, {"molecule": "Cc1ccc2c(c1)/C(=N/NC(=S)Nc1ccc(S(N)(=O)=O)cc1)C(=O)N2", "note": "[4b, 1H-indole-2,3-dione 3-[N-(4-sulfamoylphenyl)thiosemicarbazone], R = 5-CH3]", "Ki": 54}, {"molecule": "NS(=O)(=O)c1ccc(NC(=S)N/N=C2\\C(=O)Nc3ccc(Cl)cc32)cc1", "note": "[4e, 1H-indole-2,3-dione 3-[N-(4-sulfamoylphenyl)thiosemicarbazone], R = 5-Cl]", "Ki": 41.3}, {"molecule": "NS(=O)(=O)c1ccc(NC(=S)N/N=C2\\C(=O)Nc3c(Br)cc(Br)cc32)cc1", "note": "[4m, 1H-indole-2,3-dione 3-[N-(4-sulfamoylphenyl)thiosemicarbazone], R = 5,7-diBr]", "Ki": 46.6}, {"molecule": "NS(=O)(=O)c1ccc(NC(=S)N/N=C2\\C(=O)Nc3ccc(S(=O)(=O)O)cc32)cc1", "note": "[4h, 1H-indole-2,3-dione 3-[N-(4-sulfamoylphenyl)thiosemicarbazone], R = 5-SO3Na]", "Ki": 19.8}]}]}
